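Where inhibition never reached the appropriate level, the endpoint shown equals the highest concentration tested. Otherwise, values were interpolated linearly from a five-concentration, 48-hour dose response in 96-well plates. TGI denotes the concentration required for complete inhibition of growth.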 Bounds are passed on as bounds.

We go through seven compounds from PubChem BioAssay (NCI).

Among the test systems are SK-MEL-5 melanoma; TK-10 renal; SW-620 colon; RPMI-8226 leukemia; HCT-116 colon; UACC-62 melanoma; A549 NSCLC; ACHN renal; HCT-15 colon; MDA-N; M14 melanoma; CCRF-CEM leukemia; SR leukemia; MDA-MB-435; HOP-62 NSCLC; MALME-3M melanoma; EKVX NSCLC; LOX IMVI melanoma; UACC-257 melanoma.
What all share (assay): NCI-60 cell line screen, 48 h

With `Nc1ccc(-c2nc3ccccc3s2)cc1CO`, the TGI in the assay with SK-MEL-5 melanoma, with TK-10 renal, in the assay on SW-620 colon, with RPMI-8226 leukemia, with HCT-116 colon and in the assay on UACC-62 melanoma was above 100 µM in each case. Further, the TGI with A549 NSCLC, in the assay with ACHN renal, in the assay with HCT-15 colon, with MDA-N, in the assay with M14 melanoma and in the assay with CCRF-CEM leukemia was above 100 µM each time. For the same compound, the TGI is above 100 µM in the assay on SR leukemia; above 100 µM with MDA-MB-435; above 90.4 µM in the assay with HOP-62 NSCLC; above 100 µM with MALME-3M melanoma; above 49.2 µM with EKVX NSCLC; above 100 µM in the assay on LOX IMVI melanoma. The compound also yielded a TGI with UACC-257 melanoma above 100 µM.
`O=c1[nH][nH]c(=O)n1Cc1ccccc1`: the TGI in the assay with SK-MEL-5 melanoma, in the assay with TK-10 renal, in the assay with SW-620 colon, in the assay with RPMI-8226 leukemia, with HCT-116 colon and with UACC-62 melanoma was above 100 µM in each case. Further, the TGI in the assay on A549 NSCLC, with HCT-15 colon, in the assay on MDA-N, in the assay on M14 melanoma, in the assay with CCRF-CEM leukemia and in the assay on SR leukemia was above 100 µM in each case. Besides, the TGI in the assay with MDA-MB-435, with MALME-3M melanoma, in the assay on EKVX NSCLC, in the assay on LOX IMVI melanoma and in the assay with UACC-257 melanoma was above 100 µM each time.
Take `CC(=O)NC1C(OCc2ccccc2)OC(CO)C(O)C1OCC(=O)NC(C(=O)NC(CCC(=O)NCCCCCC(=O)Nc1ccc2c(c1)CN1C(=O)c3ccccc3C1=N2)C(N)=O)C(C)C` (centres undefined): the TGI with SK-MEL-5 melanoma is 49.6 µM; in the assay on TK-10 renal it was 39.6 µM; in the assay with SW-620 colon, above 100 µM; in the assay on RPMI-8226 leukemia, above 100 µM; in the assay with HCT-116 colon, above 100 µM; in the assay with UACC-62 melanoma, 40.9 µM. Besides, the TGI in the assay on A549 NSCLC, with ACHN renal, in the assay with HCT-15 colon, with MDA-N, with M14 melanoma and in the assay on CCRF-CEM leukemia was above 100 µM each time. The TGI with SR leukemia was above 100 µM; in the assay with MDA-MB-435, above 100 µM; in the assay with HOP-62 NSCLC, 40.8 µM; with MALME-3M melanoma it was 46.5 µM; with EKVX NSCLC, above 100 µM; with LOX IMVI melanoma it was above 100 µM. In addition, the TGI with UACC-257 melanoma amounted to 66.7 µM.
Take `c1ccc2c(c1)nc1ccccn12`: the TGI with SK-MEL-5 melanoma, with TK-10 renal, with SW-620 colon, with RPMI-8226 leukemia, in the assay on HCT-116 colon and in the assay on UACC-62 melanoma was above 100 µM in each case. Also, the TGI with A549 NSCLC, with ACHN renal, with HCT-15 colon, in the assay on MDA-N, in the assay with M14 melanoma and with CCRF-CEM leukemia was above 100 µM each time. Besides, the TGI in the assay on SR leukemia, in the assay with MDA-MB-435, in the assay on HOP-62 NSCLC, in the assay on MALME-3M melanoma, in the assay with EKVX NSCLC and with UACC-257 melanoma was above 100 µM in each case.
As to `CCCCCN1C(=O)C(Cc2ccccc2)N=C(c2ccc(O)cc2)c2cc(Cl)ccc21` (centres undefined), the TGI in the assay on TK-10 renal came out at 31.2 µM; in the assay on SW-620 colon, 26.8 µM; in the assay on RPMI-8226 leukemia, 12.1 µM; in the assay with HCT-116 colon, 21.5 µM; in the assay with UACC-62 melanoma, 25 µM; in the assay with A549 NSCLC, 31.7 µM. For the same compound, the TGI is 25.9 µM in the assay with ACHN renal; 21.2 µM in the assay on HCT-15 colon; above 40.3 µM with MDA-N; 34.4 µM in the assay with M14 melanoma; above 100 µM in the assay with CCRF-CEM leukemia; 15.3 µM in the assay on SR leukemia. The TGI was determined as 24.4 µM in the assay on MDA-MB-435; 52.8 µM in the assay with HOP-62 NSCLC; 23.6 µM in the assay with MALME-3M melanoma; 25.6 µM in the assay on EKVX NSCLC; 18.5 µM in the assay on LOX IMVI melanoma; 23.7 µM with UACC-257 melanoma.
Consider `c1ccc2c(c1)CCN1CCc3ccccc3C1C2` (centres undefined), for which the TGI was 37 µM with SK-MEL-5 melanoma; above 100 µM in the assay with TK-10 renal; above 100 µM in the assay with SW-620 colon; above 100 µM in the assay with RPMI-8226 leukemia; above 100 µM with HCT-116 colon; above 100 µM in the assay with UACC-62 melanoma. Also, the TGI is above 100 µM in the assay with A549 NSCLC; above 100 µM in the assay with ACHN renal; above 100 µM in the assay with HCT-15 colon; above 100 µM in the assay with MDA-N; 82.1 µM in the assay with M14 melanoma; above 100 µM in the assay on CCRF-CEM leukemia. Further, the TGI in the assay with SR leukemia, with MDA-MB-435, in the assay with HOP-62 NSCLC, in the assay on MALME-3M melanoma, with EKVX NSCLC and in the assay on LOX IMVI melanoma was above 100 µM in each case. Further, the TGI in the assay on UACC-257 melanoma was above 100 µM.
With `CN(C)c1n2c3ccc([N+](=O)[O-])cc3n3c(N(C)C)[n+]4ccccc4c3c2c2cccc[n+]12`, the TGI in the assay on SK-MEL-5 melanoma, with TK-10 renal, in the assay with SW-620 colon, with RPMI-8226 leukemia, in the assay with HCT-116 colon and with UACC-62 melanoma was above 100 µM throughout. Also, the TGI with A549 NSCLC, with ACHN renal, in the assay on HCT-15 colon, with MDA-N, in the assay on M14 melanoma and in the assay on CCRF-CEM leukemia was above 100 µM each time. Further, the TGI with SR leukemia, in the assay on MDA-MB-435, in the assay on HOP-62 NSCLC, in the assay on MALME-3M melanoma, with EKVX NSCLC and in the assay with LOX IMVI melanoma was above 100 µM throughout. For the same compound, in the assay on UACC-257 melanoma, the TGI was above 100 µM.
